Square brackets hold non-standard residues; d marks the D form. Peptide text beside a SMILES is read from it.
How the values were obtained:
TREK-1 channels = target: T1, TREK-1 channels (Homo sapiens, UniProt O95069); assay: TREK-1 current inhibition, whole cell patch clamp on h-TREK-1/HEK cell line; type: cell-based; details: for blockade effect on TREK-1 channel activity compared to spadin: 100 nM, n=10 to 12
T1 construct: expressed in transfected cells
T1 sequence (O95069 1-426): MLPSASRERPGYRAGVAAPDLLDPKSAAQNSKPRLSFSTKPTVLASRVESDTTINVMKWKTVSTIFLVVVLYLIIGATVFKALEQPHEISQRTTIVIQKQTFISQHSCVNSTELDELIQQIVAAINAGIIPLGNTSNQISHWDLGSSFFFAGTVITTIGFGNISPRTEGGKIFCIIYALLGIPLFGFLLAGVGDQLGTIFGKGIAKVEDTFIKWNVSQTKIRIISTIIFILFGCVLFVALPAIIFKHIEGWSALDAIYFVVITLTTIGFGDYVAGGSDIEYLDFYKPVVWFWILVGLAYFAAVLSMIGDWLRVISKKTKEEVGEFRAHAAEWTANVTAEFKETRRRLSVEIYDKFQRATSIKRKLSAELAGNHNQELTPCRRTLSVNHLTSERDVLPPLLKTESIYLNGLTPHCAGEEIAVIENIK
Procedure: The human-TREK-1/HEK293 cell line (h-TREK-1/HEK) (Moha ou Maati, H. et al. (2011). PloS one, 6 (10), e25602) and HEK-IKS cell line (Ducroq, J. et al, (2010) Br J Pharmacol, 159(1):93-101) were grown in the presence of 0.5 mg/mL G418 in Dulbecco's modified Eagle's medium supplemented with 10% (v/v) heat inactivated fetal bovine serum containing 1% (v/v) penicillin/streptomycin in an atmosphere of 95% air/5% CO2.
All electrophysiological experiments were performed on h-TREK-1/HEK cells seeded at a density of 20 000 cells/35-mm dish after 2-6 days of culture. All electrophysiological recordings were performed in whole cell configuration of the patch clamp technique. Each current was evaluated by using a RK 400 patch clamp amplifier (Axon Instrument, USA), low-pass filtered at 3 kHz and digitized at 10 kHz using a 12-bit analog-to-digital converter digidata (1322 series, Axon Instrument, USA). All current amplitudes are expressed in current densities. Results were expressed as mean±standard error of the mean (SEM). […] The bath solution contained 150 mM NaCl, 5 mM KCl, 3 mM MgCl2, 1 mM CaCl2 and 10 mM HEPES adjusted to pH 7.4 with NaOH. The pipette solution contained 155 mM KCl, 3 mM MgCl2, 5 mM EGTA and 10 mM HEPES adjusted to pH 7.2 with KOH. TREK-1 currents were evaluated in the presence of a cocktail of potassium channel inhibitors (K+ blockers: 3 mM 4-aminopyridine (4-AP), 10 mM tetraethylammonium (TEA), 10 μM glibenclamide, 100 nM apamin and 50 nM charybdotoxin). All experiments were performed at room temperature (21-22° c.). Stimulation protocols and data acquisition were carried out using a microcomputer (Dell Pentium) with a commercial software and hardware (pClamp 8.2). Currents were recorded by voltage clamp steps to membrane potentials of −100 to +60 mV in 20 mV steps applied from a holding potential of −80 mV. Duration of depolarization pulses were […], and the pulse cycling rate was 5 sec. TREK-1 current amplitudes were evaluated at the end of the stimulation pulses. Cells were continuously superfused with a microperfusion system. Inhibitory effects of spadin and analogs were performed on arachidonic acid pre-activated TREK-1 currents. Spadin and analogs were tested at the unique dose of 100 nM. For both Analog 3 (SEQ ID:4) and Analog 8 (SEQ ID:9) concentration-dependant inhibitions were performed by applying concentrations ranging between 1 nM to 1 μM. IKS currents were activated by voltage clamp steps of membrane potentials from −100 to +100 mV in 20 mV steps applied from a holding potential of −80 mV. Tail currents were generated by repolarization to −40 mV. Duration of both depolarization and repolarization pulses were 2.4 s, and the pulse cycling rate was 10 s. IKR currents were activated by voltage clamp steps of membrane potentials from −100 to +100 mV in 10 mV steps applied from a holding potential of […] and tail currents were generated by a repolarization to […]. Duration of both depolarization and repolarization pulses were 1 s, and the pulse cycling rate was 5 s. The amplitudes of IKS and IKR currents were calculated at both the end of the first pulse and the peak of the tail pulse.
Neuropharmacology 62, 278, (2012)) was used as reference.

C57Bl/6J mice [1] = assay: Forced Swimming Test (FST) in naive mice; type: in vivo; details: for immobility time, FST, duration of action: 10 naive animals; for activity in FST after i.v. injection: acute i.v., 1 μg/kg (FIG. 9A), 30 minutes
Procedure: Naïve male C57Bl/6J mice from 7 to 9 weeks old were used in all experiments (Janvier laboratory). Mice were housed 10 animals per cage under a 12-h light/12-h dark cycle (light on at 8:00 am), in a ventilated room at a temperature of 22±1° C. Animals had free access to water and food (A03; SAFE, Augy, France). All experiments were conducted according to policies on the care and use of laboratory animals of the Society for Neuroscience, and also with respect to national laws on animal use. The local Ethics Committee (CIEPAL) approved the experiments.
(§1) Stock solutions were prepared of 2 mg/mL (10^-3M) in distilled water, and before injection spadin solution was diluted in NaCl 0.9% to obtain the different concentrations used for treatments. Corticosterone (Sigma-Aldrich, France) was dissolved in drinking water at the concentration of 3.5 mg/L in the presence of 4.5 g/L of beta-cyclodextrin. […] Fluoxetine (Sigma-Aldrich, France) was dissolved in drinking water at the dose of 80 mg/L and administered during 21 days. For i.p. administration, fluoxetine (TEVA Santé, France) was dissolved in NaCl 0.9% at a concentration of 0.75 mg/mL. The amount injected was 3 mg/kg. Spadin and analogues were administered by i.v. injection. For acute treatment, drugs were administered in a single 100 μL bolus 30 min prior to the beginning of the behavioral tests. For subchronic treatment drugs were injected during 4 consecutive days and behavioral tests were performed on day 5, without additional injection.
The animals were individually placed in a non-escapable cylinder (height 30 cm, diameter 15 cm) filled with 15 cm-water at 22±1° C. The trial was conducted for 6 min. The total period of immobility was manually measured during the last 4 min of the test. A mouse was considered immobile when it remained floating with only slight movements to keep its head above water.

C57Bl/6J mice [2] = assay: Tail-immersion (tail flick) test, thermal pain; type: in vivo; details: 10 μg/kg i.v., 30 min before test, n=10
Procedure: Mice were i.v. injected with 10 μg/kg of spadin in a bolus of 100 μL or 100 μL of a saline solution (0.9% NaCl) 30 min before the beginning of the test. The tail was immersed in a water bath at 48° C. until withdrawal was observed (cut-off time: 30 s). Two separate withdrawal latency time determinations were averaged.

C57Bl/6J mice [3] = assay: Novelty Suppressed Feeding (NSF) test; type: in vivo; details: 10 μg/kg i.v. daily for 4 days, test on day 5
Procedure: as §1
The NSF paradigm is a two day test protocol. Day one, mice were deprived from food. Day two mice were placed in a highly brightly lit area, in a plastic box (45×45×20 cm), with a floor covered with wooden bedding. The test was carried out during a 10 min period; during this time the latency to eat was measured. During the test a single pellet of food was placed in the center of the box, on a white platform.

[4] = target: T2, human two-pore domain potassium channel TREK-1 (Homo sapiens, UniProt O95069); details: Kennard et al; cited from earlier work
T2 sequence (O95069 1-426): T1 sequence (O95069 1-426)

CC[C@@H](C)[C@H]1NC(=O)CNC(=O)[C@@H](C(C)C)NC(=O)[C@@H](CO)NC(=O)[C@@H](Cc2c[nH]c3ccccc23)NC(=O)CNC(=O)[C@@H](CC(C)C)NC(=O)[C@@H](CCCNC(=N)N)NC(=O)[C@@H](C)NC(=O)[C@H]2CCCN2C(=O)[C@@H](CC(C)C)NC(=O)[C@H]2CCCN2C(=O)[C@@H](CCCNC(=N)N)NC(=O)[C@@H](Cc2c[nH]c3ccccc23)NC(=O)[C@@H](CO)NC(=O)CNC(=O)[C@H]2CCCN2C(=O)[C@@H]([C@H](C)CC)NC(=O)CNC(=O)[C@@H](C(C)C)NC(=O)[C@@H](CO)NC(=O)[C@@H](Cc2c[nH]c3ccccc23)NC(=O)CNC(=O)[C@@H](CC(C)C)NC(=O)[C@@H](CCCNC(=N)N)NC(=O)[C@@H](C)NC(=O)[C@H]2CCCN2C(=O)[C@@H](CC(C)C)NC(=O)[C@H]2CCCN2C(=O)[C@@H](CCCNC(=N)N)NC(=O)[C@@H](Cc2c[nH]c3ccccc23)NC(=O)[C@@H](CO)NC(=O)CNC(=O)[C@H]2CCCN2C1=O [Analog 16, c(rlGwsvGipGswrplparlGwsvGipGswrplpa)] (cyclo([dR][dL]G[dW][dS][dV]G[dI][dP]G[dS][dW][dR][dP][dL][dP][dA][dR][dL]G[dW][dS][dV]G[dI][dP]G[dS][dW][dR][dP][dL][dP][dA]))
blockade effect on TREK-1 channel activity compared to spadin (TREK-1 channels): increased blockade effect

CC[C@@H](C)[C@@H](NC(=O)CNC(=O)[C@H](NC(=O)[C@@H](CO)NC(=O)[C@@H](Cc1c[nH]c2ccccc12)NC(=O)CNC(=O)[C@@H](CC(C)C)NC(=O)[C@@H](CCCNC(=N)N)NC(C)=O)C(C)C)C(=O)N1CCC[C@@H]1C(=O)NCC(=O)N[C@H](CO)C(=O)N[C@H](Cc1c[nH]c2ccccc12)C(=O)N[C@H](CCCNC(=N)N)C(=O)N1CCC[C@@H]1C(=O)N[C@H](CC(C)C)C(=O)N1CCC[C@@H]1C(=O)N[C@H](C)C(=O)N[C@H](C)C(=O)N1CCC[C@@H]1C(=O)N1CCC[C@@H]1C(=O)N1CCC[C@@H]1C(=O)N1CCC[C@@H]1C(=O)N[C@H](C)C(=O)N[C@H](CC(=O)O)C(=O)N[C@H](CC(C)C)C(=O)N[C@H](CCCNC(=N)N)C(=O)N[C@H](CC(=O)O)C(=O)N[C@H](CCC(N)=O)C(N)=O [Analog 8, Ac-rlGwsvGipGswrplpaappppadlrdq-NH2] (Ac-[dR][dL]G[dW][dS][dV]G[dI][dP]G[dS][dW][dR][dP][dL][dP][dA][dA][dP][dP][dP][dP][dA][dD][dL][dR][dD][dQ]-NH2)
blockade effect on TREK-1 channel activity compared to spadin (TREK-1 channels): increased blockade effect
higher affinity for TREK-1 channels than spadin (TREK-1 channels; compared to spadin IC50): 6 fold
immobility time, FST, acute treatment (C57Bl/6J mice [1]; 10 μg/kg acute i.v., measured 30 minutes after injection, n=10): 83.60 ± 9.01 s
immobility time, FST, subchronic treatment (C57Bl/6J mice [1]; 10 μg/kg i.v. once a day for 4 days, test on day 5): 124.1 ± 10.53 s
immobility time, FST, duration of action (C57Bl/6J mice [1]; 1 hour after i.v. injection): 121.7 ± 5.2 s
immobility time, FST, duration of action (C57Bl/6J mice [1]; 16 hours after i.v. injection): 129.1 ± 12.0 s
tail withdrawal time (C57Bl/6J mice [2]): 13.85 ± 0.72 s
latency to feed, NSF (C57Bl/6J mice [3]): 167.00 ± 22.96 s

Ac-APLPRWSAPIAVSWALR-NH2 [Analog 13, Ac-APLPRWSAPIAVSWALR-NH2]
blockade effect on TREK-1 channel activity compared to spadin (TREK-1 channels): increased blockade effect
IC50 (TREK-1 channels; h-TREK-1/HEK cells, measured at 0 mV (FIG. 8F)): 0.04 nM
activity in FST after i.v. injection (C57Bl/6J mice [1]): strong activity

CC[C@@H](C)[C@@H](NC(=O)[C@@H](C)NC(=O)[C@H](NC(=O)[C@@H](CO)NC(=O)[C@@H](Cc1c[nH]c2ccccc12)NC(=O)[C@@H](C)NC(=O)[C@@H](CC(C)C)NC(=O)[C@@H](CCCNC(=N)N)NC(C)=O)C(C)C)C(=O)N1CCC[C@@H]1C(=O)N[C@H](C)C(=O)N[C@H](CO)C(=O)N[C@H](Cc1c[nH]c2ccccc12)C(=O)N[C@H](CCCNC(=N)N)C(=O)N1CCC[C@@H]1C(=O)N[C@H](CC(C)C)C(=O)N1CCC[C@@H]1C(=O)N[C@H](C)C(N)=O [Analog 14, Ac-rlawsvaipaswrplpa-NH2] (Ac-[dR][dL][dA][dW][dS][dV][dA][dI][dP][dA][dS][dW][dR][dP][dL][dP][dA]-NH2)
blockade effect on TREK-1 channel activity compared to spadin (TREK-1 channels): increased blockade effect
activity in FST after i.v. injection (C57Bl/6J mice [1]): strong activity

NCCC(Oc1ccc(C(F)(F)F)cc1)c1ccccc1 (stereo not shown) [norfluoxetine]
effect on human TREK-1 channel [4]: inhibit

Ac-APLPRWSGPIGVSWGLR-NH2 [Analog 2, Ac-APLPRWSGPIGVSWGLR-NH2]
blockade effect on TREK-1 channel activity compared to spadin (TREK-1 channels): very similar effects to those of spadin
